Experimental data as given in ChEMBL document CHEMBL1136945, “Antimalarial activity of thiosemicarbazones and purine derived nitriles” (Bioorg Med Chem Lett, 2009).

How the values were obtained:
Type in all cases: functional, organism-based
[1] = test system: Plasmodium falciparum; assay: (§1) Antimalarial activity as reduced parasitaemia after 72 hrs against chloroquine-resistant Plasmodium falciparum K1 infected human O+ erythrocytes by DNA stain without pepstatin; conditions: K1, 72 h
[2] = test system: Plasmodium falciparum; assay: as §1; conditions: K1, 72 h; remark: listed apart in the source
[3] = test system: Plasmodium falciparum; assay: Antimalarial activity as reduced parasitaemia after 72 hrs against chloroquine-sensitive Plasmodium falciparum 3D7 infected human O+ erythrocytes by DNA stain without pepstatin; conditions: 3D7, 72 h
[4] = test system: Plasmodium falciparum; assay: Antimalarial activity as reduced parasitaemia after 72 hrs against chloroquine-sensitive Plasmodium falciparum 3D7 infected human O+ erythrocytes by DNA stain with pepstatin; conditions: 3D7, 72 h

| Structure (SMILES) | EC50 [1] | EC50 [2] | EC50 [3] | EC50 [4] |
| --- | --- | --- | --- | --- |
| NC(=S)N/N=C(/CCc1ccccc1)c1cccc(Cl)c1 | > 30 µM | > 30 µM | > 30 µM |  |
| NC(=S)N/N=C(/C=C/c1ccccc1)c1cccc(C(F)(F)F)c1 | 30 µM | 30 µM | 30 µM | 30 µM |
| NC(=S)N/N=C(/CCc1ccccc1)c1ccccc1 | > 30 µM | > 30 µM | > 30 µM |  |
| NC(=S)N/N=C(/CCc1ccccc1)c1cc(C(F)(F)F)cc(C(F)(F)F)c1 | 30 µM | 30 µM | 30 µM | 30 µM |
| CCC(C)CNc1nc(C#N)nc2c1NCN2C1CCCC1 (stereo unspecified) | > 30 µM | > 30 µM | > 30 µM | > 30 µM |
| NC(=S)N/N=C(/c1ccccc1)c1cc(Cl)cc(Cl)c1 | > 30 µM | > 30 µM | > 30 µM |  |
| CC(Nc1nc(C#N)nc2c1NCN2Cc1ccccc1)c1ccccc1 (stereo unspecified) | > 30 µM | > 30 µM | > 30 µM | 30 µM |
| CCCCCCNc1nc(C#N)nc2c1NCN2CC1CCCCC1 | > 30 µM | > 30 µM | > 30 µM | > 30 µM |
| CCCCCCNc1nc(C#N)nc2c1NCN2C1CCCC1 | > 30 µM | > 30 µM | > 30 µM | > 30 µM |
| CCCCCCNc1nc(C#N)nc2c1NCN2Cc1ccccc1 | > 30 µM | > 30 µM | > 30 µM | > 30 µM |
| CC(Nc1nc(C#N)nc2c1NCN2C1CCCC1)c1ccccc1 (stereo unspecified) | 30 µM | 30 µM | > 30 µM | > 30 µM |
| N#Cc1nc(NCc2ccc(Cl)cc2)c2c(n1)N(C1CCCC1)CN2 | > 30 µM | 30 µM | > 30 µM | 30 µM |
| CCCCN1CNc2c(NCc3cccc(C)c3)nc(C#N)nc21 | > 30 µM | > 30 µM | > 30 µM | > 30 µM |
| N#Cc1nc(NCc2ccccc2)c2c(n1)N(Cc1ccccc1)CN2 | > 30 µM | > 30 µM | > 30 µM | > 30 µM |
| CCCCN1CNc2c(NCc3ccccc3)nc(C#N)nc21 | > 30 µM | > 30 µM | > 30 µM | > 30 µM |
| CCCCN1CNc2c(NCc3ccc(C)cc3)nc(C#N)nc21 | > 30 µM | > 30 µM | > 30 µM | > 30 µM |
| CCCCN1CNc2c(NCc3ccc(OC)cc3)nc(C#N)nc21 | > 30 µM | > 30 µM | > 30 µM | > 30 µM |
| Cc1ccc(CNc2nc(C#N)nc3c2NCN3CCCO)cc1 | > 30 µM | > 30 µM | > 30 µM | > 30 µM |
| CCCCN1CNc2c(NCc3ccc(F)cc3)nc(C#N)nc21 | > 30 µM | > 30 µM | > 30 µM | > 30 µM |
| N#Cc1nc(NCc2ccc(Cl)cc2)c2c(n1)N(CC1CCCCC1)CN2 | > 30 µM | > 30 µM | > 30 µM | > 30 µM |
| N#Cc1nc(NCc2ccccc2)c2c(n1)N(C1CCCCO1)CN2 (stereo unspecified) | > 30 µM | > 30 µM | > 30 µM | > 30 µM |
| CCCCN1CNc2c(NCCc3ccccc3)nc(C#N)nc21 | > 30 µM | > 30 µM | > 30 µM | > 30 µM |
| N#Cc1nc(NCc2ccc(F)cc2)c2c(n1)N(CCCCO)CN2 | > 30 µM | > 30 µM | > 30 µM | > 30 µM |

| Structure (SMILES) | EC50 [1] | EC50 [2] | EC50 [3] | EC50 [4] |
| --- | --- | --- | --- | --- |
| N#Cc1nc(NCc2ccc(F)cc2)c2c(n1)N(Cc1ccccc1)CN2 | > 30 µM | > 30 µM | > 30 µM | > 30 µM |
| N#Cc1nc(NCCc2ccccc2)c2c(n1)N(Cc1ccccc1)CN2 | > 30 µM | > 30 µM | > 30 µM | > 30 µM |
| N#Cc1nc(NCCc2ccccc2)c2c(n1)N(c1cccnc1)CN2 | > 30 µM | > 30 µM | > 30 µM | > 30 µM |
| COc1ccc(CN2CNc3c(NCc4ccccc4)nc(C#N)nc32)cc1 | > 30 µM | > 30 µM | > 30 µM | > 30 µM |
| N#Cc1nc(NCc2ccc(Cl)cc2)c2c(n1)N(CCCCO)CN2 | > 30 µM | > 30 µM | > 30 µM | > 30 µM |
| CC(C)Oc1ccccc1-c1cccc(CNc2nc(C#N)nc3c2ncn3CCCO)c1 | 30 µM | 30 µM | 30 µM | 30 µM |
| CCC(C)CNc1nc(C#N)nc2c1NCN2Cc1ccccc1 (stereo unspecified) | > 30 µM | > 30 µM | > 30 µM | 30 µM |
| Cc1cccc(CNc2nc(C#N)nc3c2NCN3C2CCCC2)c1 | > 30 µM | > 30 µM | > 30 µM | > 30 µM |
| CCCCN1CNc2c(NCc3ccc(Br)cc3)nc(C#N)nc21 | 30 µM | > 30 µM | > 30 µM | 30 µM |
| CCCCN1CNc2c(NCc3ccc(Cl)cc3)nc(C#N)nc21 | 30 µM | > 30 µM | > 30 µM | 30 µM |
| CCCCN1CNc2c(NC(C)c3ccccc3)nc(C#N)nc21 (stereo unspecified) | 30 µM | 30 µM | > 30 µM | 30 µM |
| N#Cc1nc(NCc2ccc(-c3ccsc3)cc2)c2ncn(CCCO)c2n1 | 30 µM | 30 µM | 30 µM | 30 µM |
| Cc1ccc(/C(=N/NC(N)=S)c2cc(C(F)(F)F)cc(C(F)(F)F)c2)cc1 | 30 µM | 30 µM | 30 µM | 30 µM |
| Cc1ccccc1-c1cccc(CNc2nc(C#N)nc3c2ncn3CCCO)c1 | 30 µM | 30 µM | 30 µM | 30 µM |
| COc1ccc(CNc2nc(C#N)nc3c2NCN3Cc2ccccc2)cc1 | > 30 µM | > 30 µM | > 30 µM | > 30 µM |
| Cc1ccc(CNc2nc(C#N)nc3c2NCN3Cc2ccccc2)cc1 | > 30 µM | > 30 µM | > 30 µM | > 30 µM |
| N#Cc1nc(NCc2ccc(-c3cccs3)cc2)c2ncn(CCCO)c2n1 | 30 µM | 30 µM | 30 µM | 30 µM |
| N#Cc1nc(NCc2ccccc2)c2c(n1)N(CCCO)CN2 | > 30 µM | > 30 µM | > 30 µM | > 30 µM |
| N#Cc1nc(NCc2ccc(Br)cc2)c2c(n1)N(Cc1ccccc1)CN2 | 30 µM | 30 µM | > 30 µM | 30 µM |
| N#Cc1nc(NCc2ccccc2)c2c(n1)N(Cc1cccc(C(F)(F)F)c1)CN2 | 30 µM | 30 µM | 30 µM | 30 µM |
| COc1ccc(CNc2nc(C#N)nc3c2NCN3C2CCCC2)cc1 | > 30 µM | > 30 µM | > 30 µM | > 30 µM |
| N#Cc1nc(NCc2ccc(Cl)cc2)c2c(n1)N(Cc1ccccc1)CN2 | > 30 µM | 30 µM | > 30 µM | 30 µM |
| CC(=O)Nc1ccc(CNc2nc(C#N)nc3c2ncn3CCCO)cc1 | 30 µM | 30 µM | 30 µM | 30 µM |
